pIC50: −log10 of the molar value.
Experiments:
Estrogen receptor [1] = molecular target: T1, Estrogen receptor (Homo sapiens, UniProt P03372); assay: Human ERalpha Reporter Assa
T1 sequence (P03372 whole entry): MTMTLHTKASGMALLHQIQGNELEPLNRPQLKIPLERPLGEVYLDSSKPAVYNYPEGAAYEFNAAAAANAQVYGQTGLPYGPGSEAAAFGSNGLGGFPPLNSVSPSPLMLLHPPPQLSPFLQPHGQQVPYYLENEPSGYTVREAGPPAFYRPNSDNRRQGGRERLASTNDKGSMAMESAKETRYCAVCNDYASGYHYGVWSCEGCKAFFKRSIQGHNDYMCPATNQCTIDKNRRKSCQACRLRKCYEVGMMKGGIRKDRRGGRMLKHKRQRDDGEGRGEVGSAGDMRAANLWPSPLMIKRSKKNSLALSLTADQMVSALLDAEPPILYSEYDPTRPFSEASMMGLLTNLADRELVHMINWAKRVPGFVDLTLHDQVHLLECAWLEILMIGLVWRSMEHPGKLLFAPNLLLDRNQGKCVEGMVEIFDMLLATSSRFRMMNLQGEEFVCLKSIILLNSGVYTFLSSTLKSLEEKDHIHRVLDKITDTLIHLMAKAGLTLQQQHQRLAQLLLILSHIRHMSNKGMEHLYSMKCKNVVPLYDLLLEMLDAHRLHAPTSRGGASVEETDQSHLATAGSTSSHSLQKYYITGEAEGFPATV
Procedure: All reagents used in this assay was supplied in the Human ERα Reporter Assay by Indigo Biosciences # IB00401. In an effort to screen selective estrogen receptor degraders (SERDs), the Human ERα Reporter Assay, supplied by Indigo Biosciences, was utilized to quantify antagonist functional activity against the human estrogen receptor. Reporter cells were thawed at 37° C. and added to pre-warmed to 37° C. cell recovery medium (CRM). Stock concentration of 17β-estradiol was serially diluted in CRM. […] Cells plus 17β-estradiol were dispensed in a kit-supplied white walled 96-well plate. Concentrated stocks of test compounds were diluted to 2× working concentrations in cell screening medium (CSM). 2× concentrated compounds were added to the plated cells in a dose-dependent manner resulting in a final concentration range of 1E-11 to 1E-5 M and a final 17β-estradiol concentration of 8E-10 M. Assay plates were incubated for 24 hours in a humidified 37° C. incubator. Culture medium was removed from the assay plates by inversion. Detection substrate and buffer was warmed to room temperature, mixed thoroughly, and immediately added to the assay plates. […] Luminescence was measured in a Synergy HTX luminescence plate reader. Data is processed utilizing GraphPad Prism 7 by graphing the relative light units measured at each compound concentration.

Estrogen receptor [2] = molecular target: T1, Estrogen receptor; assay: Estrogen Receptor (ER) Degradation Assay
Procedure: A screening strategy was implemented utilizing an In-Cell Western assay to measure their ability to degrade the estrogen receptor in vitro. MCF7 cells, which are estrogen receptor positive, were plated at a cell density of […] into black walled clear bottom 96-well plates. Cells were incubated in phenol red free Dulbecco's Modified Eagle Media (DMEM) supplemented with 8% charcoal-stripped fetal bovine calf serum for 24 hours in a humidified 37° C. incubator. Concentrated stock compounds were diluted to 10× in complete media. Compounds were added to the plated cells in a dose-dependent manner ranging from 1E-12 to 1E-05 M and incubated for an additional 24 hours at 37° C. Culture medium was removed from the culture plates by gentle inversion. Cells were fixed in 4% paraformaldehyde in 1× phosphate buffered saline-calcium magnesium free (PBS-CMF) for 15 minutes at room temperature, washed 3 times for 5 minutes each in 1×PBS-CMF. […] ER protein expression was assessed by the Licor Odyssey CLx imaging system using Image Studio v5.2. Data is processed utilizing GraphPad Prism 7 by subtracting background from the vehicle and setting the vehicle to 100% ER activity, followed by comparing treated samples to vehicle.

pIC50 (Estrogen receptor [1])	pIC50 (Estrogen receptor [2])	SMILES
> 6.00		Cc1cc(F)cc(C)c1C(=O)c1sc2cc(O)ccc2c1Oc1ccc(OCCN2CCCCCC2)cc1 [US10208011, Compound 107]
> 6.00		Cc1cc(F)cc(C)c1C(=O)c1sc2cc(O)ccc2c1Oc1ccc(OCCN2CCCCC2)cc1 [US10208011, Compound 106]
	> 6.00	Cc1cc(F)cc(C)c1C(=O)c1sc2cc(O)ccc2c1Oc1ccc(OCCN2CCCC2)cc1 [US10208011, Compound 108]

Source: BindingDB's records for patent US10208011 (G1 Therapeutics, Inc., 2019)
